Laboratory results as given in patent publication US9334279B2, “Hepatitis C virus inhibitors” (BRISTOL-MYERS SQUIBB COMPANY, priority 2012, dated 2016).
pEC50: −log10 of the molar value. Where two headings read alike, the source gives them in different places.

Legend:
HCV GT1a(H77) replicon = assay: HCV replicon luciferase reporter assay, genotype 1a; format: cell-based, HCV genotype 1a; details: Hepatitis C virus, 72 h, HUH-7 cells, Renilla luciferase, 3 days incubation
Summary of the method: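 Huh-7 cells stably carried a GT1a(H77) Renilla luciferase replicon with NS3 P1496L and NS5A S2204I adaptive mutations. Luminescence was read after 2 h with 7.5 μM EnduRen, and EC50 came from a four-parameter logistic fit; CC50 came from multiplexed Cell Titer-Blue (8 h).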

HCV GT1b(Con1) replicon = assay: HCV replicon luciferase reporter assay, genotype 1b; format: cell-based, HCV genotype 1b; details: Hepatitis C virus, 72 h, HUH-7 cells, Renilla luciferase, 3 days incubation
Summary of the method: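 HUH-7 cells stably carrying a Con1 GT1b replicon with Renilla luciferase and Ser1179Ile adaptive mutation; 3.0×10^3 cells/well, DMEM 4% FCS, 0.5% DMSO, twenty-point 3-fold titration, 3 days 37 °C. Luminescence 2 h after 7.5 μM EnduRen; EC50 by four-parameter logistic fit. CC50 from multiplexed Cell Titer-Blue fluorescence (8 h).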

CC(C)Oc1ccc(-c2cc(O[C@@H]3C[C@H]4C(=O)N[C@]5(C(=O)NS(=O)(=O)C6(C)CC6)C[C@H]5/C=C\CC[C@@H](C)C[C@@H](C)[C@H](NC(=O)OC(C)(C)C(F)(F)F)C(=O)N4C3)cc(-c3cccnc3)n2)cc1 [Compound 1005, 1,1,1-trifluoro-2-methylpropan-2-yl ((2R,6S,7R,9R,13aS,14aR,16aS,Z)-2-((6-(4-isopropoxyphenyl)-[2,3′-bipyridin]-4-yl)oxy)-7,9-dimethyl-14a-(((1-methylcyclopropyl)sulfonyl)carbamoyl)-5,16-dioxo-1,2,3,5,6,7,8,9,10,11,13a,14,14a,15,16,16a-hexadecahydrocyclopropa[e]pyrrolo[1,2-a][1,4]diazacyclopentadecin-6-yl)carbamate]
pEC50 (HCV GT1a(H77) replicon; read-out: LE_1a (EC50)): 8.83
pEC50 (HCV GT1a(H77) replicon; read-out: LE_1a (EC50, range)): 8.30 to 9.00
pEC50 (HCV GT1b(Con1) replicon; read-out: LE_1b (EC50)): 8.77
pEC50 (HCV GT1b(Con1) replicon; read-out: LE_1b (EC50, range)): 8.30 to 9.00

CC[C@@H]1O[C@H](C)CC/C=C\[C@@H]2C[C@@]2(C(=O)NS(=O)(=O)C2(C)CC2)NC(=O)[C@@H]2C[C@@H](Oc3cc(-c4ccc(OC(C)C)cc4)nc(-c4ccccn4)c3)CN2C(=O)[C@H]1NC(=O)OC1(C(F)(F)F)CCCOC1 (stereo partly drawn) [Compound 1037, 3-(trifluoromethyl)tetrahydro-2H-pyran-3-yl ((2R,6S,7S,9R,13aS,14aR,16aS,Z)-7-ethyl-2-((6-(4-isopropoxyphenyl)-[2,2′-bipyridin]-4-yl)oxy)-9-methyl-14a-(((1-methylcyclopropyl)sulfonyl)carbamoyl)-5,16-dioxo-2,3,5,6,7,9,10,11,13a,14,14a,15,16,16a-tetradecahydro-1H-cyclopropa[i]pyrrolo[1,2-e][1,5,8]oxadiazacyclopentadecin-6-yl)carbamate]
pEC50 (HCV GT1a(H77) replicon; read-out: LE_1a (EC50, range)): 8.30 to 9.00
pEC50 (HCV GT1b(Con1) replicon; read-out: LE_1b (EC50, range)): 9.30 to 10.00

CC[C@@H]1O[C@H](C)CC/C=C\[C@@H]2C[C@@]2(C(=O)NS(=O)(=O)C2(C)CC2)NC(=O)[C@@H]2C[C@@H](Oc3cc(-c4ccc(C(F)(F)F)cc4)nc(-c4nccs4)c3)CN2C(=O)[C@H]1NC(=O)OC(C)(C)C(F)(F)F [Compound 1039, 1,1,1-trifluoro-2-methylpropan-2-yl ((2R,6S,7S,9R,13aS,14aR,16aS,Z)-7-ethyl-9-methyl-14a-(((1-methylcyclopropyl)sulfonyl)carbamoyl)-5,16-dioxo-2-((2-(thiazol-2-yl)-6-(4-(trifluoromethyl)phenyl)pyridin-4-yl)oxy)-2,3,5,6,7,9,10,11,13a,14,14a,15,16,16a-tetradecahydro-1H-cyclopropa[i]pyrrolo[1,2-e][1,5,8]oxadiazacyclopentadecin-6-yl)carbamate]
pEC50 (HCV GT1a(H77) replicon; read-out: LE_1a (EC50, range)): 8.30 to 9.00
pEC50 (HCV GT1b(Con1) replicon; read-out: LE_1b (EC50, range)): 8.30 to 9.00

CC(C)Oc1ccc(-c2cc(O[C@@H]3C[C@H]4C(=O)N[C@]5(C(=O)NS(=O)(=O)C6(C)CC6)C[C@H]5/C=C\CC[C@@H](C)C[C@@H](C)[C@H](NC(=O)OC5(C(F)(F)F)CCCOC5)C(=O)N4C3)cc(-c3nccs3)n2)cn1 (stereo partly drawn) [Compound 1047, 3-(trifluoromethyl)tetrahydro-2H-pyran-3-yl ((2R,6S,7R,9R,13aS,14aR,16aS,Z)-2-((6′-isopropoxy-6-(thiazol-2-yl)-[2,3′-bipyridin]-4-yl)oxy)-7,9-dimethyl-14a-(((1-methylcyclopropyl)sulfonyl)carbamoyl)-5,16-dioxo-1,2,3,5,6,7,8,9,10,11,13a,14,14a,15,16,16a-hexadecahydrocyclopropa[e]pyrrolo[1,2-a][1,4]diazacyclopentadecin-6-yl)carbamate]
pEC50 (HCV GT1a(H77) replicon; read-out: LE_1a (EC50, range)): 8.30 to 9.00
pEC50 (HCV GT1b(Con1) replicon; read-out: LE_1b (EC50, range)): 9.00 to 9.29

Cc1cc(O[C@@H]2C[C@H]3C(=O)N[C@]4(C(=O)NS(=O)(=O)C5(C)CC5)C[C@H]4/C=C\CC[C@H](C)C[C@@H](C)[C@H](NC(=O)OC(C)(C)C(F)(F)F)C(=O)N3C2)cc(-c2cncs2)n1 [Compound 1016, 1,1,1-trifluoro-2-methylpropan-2-yl ((2R,6S,7R,9S,13aS,14aR,16aS,Z)-7,9-dimethyl-2-((2-methyl-6-(thiazol-5-yl)pyridin-4-yl)oxy)-14a-(((1-methylcyclopropyl)sulfonyl)carbamoyl)-5,16-dioxo-1,2,3,5,6,7,8,9,10,11,13a,14,14a,15,16,16a-hexadecahydrocyclopropa[e]pyrrolo[1,2-a][1,4]diazacyclopentadecin-6-yl)carbamate]
pEC50 (HCV GT1a(H77) replicon; read-out: LE_1a (EC50, range)): 6.44 to 7.46
pEC50 (HCV GT1b(Con1) replicon; read-out: LE_1b (EC50, range)): 6.44 to 7.46

C[C@@H]1CC/C=C\[C@@H]2C[C@@]2(C(=O)NS(=O)(=O)C2(C)CC2)NC(=O)[C@@H]2C[C@@H](Oc3cc(-c4nccs4)nc(-c4nccs4)c3)CN2C(=O)[C@@H](NC(=O)OC(C)(C)C(F)(F)F)[C@H](C)C1 [Compound 1023, 1,1,1-trifluoro-2-methylpropan-2-yl ((2R,6S,7R,9R,13aS,14aR,16aS,Z)-2-((2,6-di(thiazol-2-yl)pyridin-4-yl)oxy)-7,9-dimethyl-14a-(((1-methylcyclopropyl)sulfonyl)carbamoyl)-5,16-dioxo-1,2,3,5,6,7,8,9,10,11,13a,14,14a,15,16,16a-hexadecahydrocyclopropa[e]pyrrolo[1,2-a][1,4]diazacyclopentadecin-6-yl)carbamate]
pEC50 (HCV GT1a(H77) replicon; read-out: LE_1a (EC50)): 9.34
pEC50 (HCV GT1a(H77) replicon; read-out: LE_1a (EC50, range)): 9.30 to 10.00
pEC50 (HCV GT1b(Con1) replicon; read-out: LE_1b (EC50)): 9.40
pEC50 (HCV GT1b(Con1) replicon; read-out: LE_1b (EC50, range)): 9.30 to 10.00

C[C@@H]1CC/C=C\[C@@H]2C[C@@]2(C(=O)NS(=O)(=O)C2(C)CC2)NC(=O)[C@@H]2C[C@@H](Oc3ccc(-c4nccs4)cn3)CN2C(=O)[C@@H](NC(=O)OC(C)(C)C(F)(F)F)[C@H](C)C1 [Compound 1064, 1,1,1-trifluoro-2-methylpropan-2-yl ((2R,6S,7R,9R,13aS,14aR,16aS,Z)-7,9-dimethyl-14a-(((1-methylcyclopropyl)sulfonyl)carbamoyl)-5,16-dioxo-2-((5-(thiazol-2-yl)pyridin-2-yl)oxy)-1,2,3,5,6,7,8,9,10,11,13a,14,14a,15,16,16a-hexadecahydrocyclopropa[e]pyrrolo[1,2-a][1,4]diazacyclopentadecin-6-yl)carbamate]
pEC50 (HCV GT1a(H77) replicon; read-out: LE_1a (EC50, range)): 8.30 to 9.00
pEC50 (HCV GT1b(Con1) replicon; read-out: LE_1b (EC50, range)): 9.30 to 10.00

CC(C)Oc1ccc(-c2cc(O[C@@H]3C[C@H]4C(=O)N[C@]5(C(=O)NS(=O)(=O)C6(C)CC6)C[C@H]5/C=C\CC[C@H](C)C[C@@H](C)[C@H](NC(=O)OC(C)(C)C(F)(F)F)C(=O)N4C3)cc(-c3cccnc3)n2)cc1 [Compound 1006, 1,1,1-trifluoro-2-methylpropan-2-yl ((2R,6S,7R,9S,13aS,14aR,16aS,Z)-2-((6-(4-isopropoxyphenyl)-[2,3′-bipyridin]-4-yl)oxy)-7,9-dimethyl-14a-(((1-methylcyclopropyl)sulfonyl)carbamoyl)-5,16-dioxo-1,2,3,5,6,7,8,9,10,11,13a,14,14a,15,16,16a-hexadecahydrocyclopropa[e]pyrrolo[1,2-a][1,4]diazacyclopentadecin-6-yl)carbamate]
pEC50 (HCV GT1a(H77) replicon; read-out: LE_1a (EC50, range)): 7.46 to 8.30
pEC50 (HCV GT1b(Con1) replicon; read-out: LE_1b (EC50, range)): 7.46 to 8.30

C[C@@H]1CC/C=C\[C@@H]2C[C@@]2(C(=O)NS(=O)(=O)C2CC2)NC(=O)[C@@H]2C[C@@H](Oc3cc(Cl)ccn3)CN2C(=O)[C@@H](NC(=O)OC(C)(C)C(F)(F)F)[C@H](C)C1 [Compound 1026, 1,1,1-trifluoro-2-methylpropan-2-yl ((2R,6S,7R,9R,13aS,14aR,16aS,Z)-2-((4-chloropyridin-2-yl)oxy)-14a-((cyclopropylsulfonyl)carbamoyl)-7,9-dimethyl-5,16-dioxo-1,2,3,5,6,7,8,9,10,11,13a,14,14a,15,16,16a-hexadecahydrocyclopropa[e]pyrrolo[1,2-a][1,4]diazacyclopentadecin-6-yl)carbamate]
pEC50 (HCV GT1a(H77) replicon; read-out: LE_1a (EC50, range)): 7.46 to 8.30
pEC50 (HCV GT1b(Con1) replicon; read-out: LE_1b (EC50, range)): 7.46 to 8.30
